Experimental data published in patent publication US20210071180A1, “MICRORNA 584-5P COMPOSITIONS AND METHODS FOR TREATING CANCER” (BOARD OF REGENTS, THE UNIVERSY OF TEXAS SYSTEM, priority 2018, published 2021).

Key:
melanoma cells = conditions: cited from earlier work
D458Med cells = test: miRNA mimic library screen, CellTiter-Glo cell viability; format: cell-based; conditions: D458Med cells, 72 hours
Protocol: To identify miRNAs that may sensitize VCR response in MB, a high-throughput screening platform was combined with a library of 1,902 chemically synthesized human miRNA mimics. The miRNAs are arrayed in a one-miRNA-one-well format in 96-well microtiter plates. Reverse transfection of Group 3/c-Myc-amplified D458Med cells was performed in triplicate in the presence and absence of a sublethal dose of VCR, which was optimized in four MB cell lines before the screen (FIG. 2A). Cells were subjected to VCR at an IC20 lethal concentration for 72 hours after 48 hours of transfection, and cell viability was measured (FIG. 1A). Candidate miRNAs were prioritized for validation by functional and interaction assays using standard Student t-tests (with pooled variance), false discovery rate (Q=0.5%), and by using the magnitude of response (lowest 2.5 percentile of the distribution of the μVCR/μControl ratios).
miRNA mimic library screen. The primary screen was conducted using MI00200 MISSION microRNA Mimic v.17, in which miRNA mimics were arrayed in a one-miRNA-one-well format in 96-well microtiter plates. […] Cell viability was assessed using CellTiter-Glo (Promega, Madison, Wis., USA) according to the manufacturer's protocol. ath-miR-416 or cel-miR-243 was added as a negative control, whereas siRNA against PLK-1 was used as a positive control in each plate. […]

Structure (SMILES) | RAD51 expression (melanoma cells) | homologous recombination (HR) (melanoma cells) | 20% inhibitory concentration (D458Med cells) [nM]
Nc1ccccc1NC(=O)c1ccc(CNC(=O)OCc2cccnc2)cc1 [MS-275] | decreases RAD51 expression | blocks HR | –
CC[C@]1(O)C[C@H]2CN(CCc3c([nH]c4ccccc34)[C@@](C(=O)OC)(c3cc4c(cc3OC)N(C=O)[C@H]3[C@@](O)(C(=O)OC)[C@H](OC(C)=O)[C@]5(CC)C=CCN6CC[C@]43[C@@H]65)C2)C1 [VCR, vincristine, reference compound] | – | – | 2
